Assay results reported in patent US11479587B2, “Cationic intrinsically disordered antimicrobial peptides” (priority 2016, dated 2022).
Marks after values point to notes of the source that are not given here. No end group written: not given here. *: point of attachment. Biotin = O=C1N[C@H]2[C@H](CS[C@H]2CCCCC(=O)*)N1

Test system: P. aeruginosa ATCC 10145
Assay: CFU-assay, P. aeruginosa-cidal activity
Format: cell-based, Pseudomonas aeruginosa
Details: pH 5.0, 0.25% glucose

| Substance | MBC100 [µg/mL] | MBC90 [µg/mL] |
| --- | --- | --- |
| Biotin-GRHGSGLGHSSSHGQHGSGSGR [Biotin-HR 1-18] | >300 |  |
| GHHGGGGGHGGGHGGHGGGGGH (Modified peptide derived from human hornerin (HR 1-18 G+H)) [HR 1-18 G + H] | 0.09 | <0.006 |
| GRGGSGLGGSSSGGQGGSGSGRSSSRGPY (Modified peptide derived from human hornerin (HR 1-17 4H-4G all H vs G)) | >300 | 75 |
| GRHGGGGGHGGGHGGHGGGGGR (Modified peptide derived from human hornerin (HR 1-18 L-G/Q-G/6S-6G)) | 0.15 | 0.038 |
| GRHGSGGGHSSSHGGHGSGSGR (Modified peptide derived from human hornerin (HR 1-18 L-G/Q-G)) | 0.15 | 0.038 |

Same assay, conditions: pH 5.5, 0.25% glucose

| Substance | MBC90 | MBC100 | MBC99 |
| --- | --- | --- | --- |
| GHHGGGGGHGGGHGGHGGGGGH (Modified peptide derived from human hornerin (HR 1-18 G+H)) [HR 1-18 G + H] | <0.006 µM | 0.09 µM |  |
| GHHGGHGGHGHGH (Synthetic cationic intrinsically disordered antimicrobial peptide (GH13)) | 0.030 µM | 0.12 µM |  |
| GKKGGKGGKGKGK (Synthetic cationic intrinsically disordered antimicrobial peptide (K-GR13)) | 0.063 µM | 2.0 µM |  |
| GOOGGOGGOGOGO [Orn-GR13] | 0.034 µM | 1.1 µM |  |
| GRHGSGLGHSSSH (Peptide derived from human hornerin (HR 1-37 HRNR 2656-2668)) [HR 1-37 HRNR2656-2668] | 9.38 µg/mL | >300 µg/mL |  |
| GRHGSGSGHSSSHGQHGSGSGR (Peptide derived from human hornerin (HRNR 2186-2207)) [HRNR2186-2207] |  | 4.7-9.37* μg/ml |  |
| GRHGSGSGQSSSYSPYGSGSGWSSSR (Peptide derived from human hornerin (HRNR 2422-2447)) [HRNR2422-2447] |  | >300 µg/mL |  |
| GSRTAGRRGSGH (Peptide derived from human filaggrin-2 (FLG-2 2094-2105)) [FLG-22094-2105] |  | >300 µg/mL |  |
| HAHSGHGQSTQR (Peptide derived from human filaggrin-2 (FLG-2 2082-2093)) [FLG-22082-2093] | 0.15 µg/mL | 2.35 µg/mL |  |
| HAHSGHGQSTQRGSR (Peptide derived from human filaggrin-2 (FLG-2 2082-2096)) [FLG-22082-2096] | 0.15 µg/mL | 1.18 µg/mL |  |
| HAHYGYGQSTQRGSRTTGRRGSGH (Peptide derived from human filaggrin-2 (FLG-2 2232-2255)) [FLG-22232-2255] | 0.075 µg/mL | 0.59 µg/mL |  |
| HGH (Synthetic cationic intrinsically disordered antimicrobial peptide (GH3)) | 200 µM | >860 µM |  |
| HGHGH (Synthetic cationic intrinsically disordered antimicrobial peptide (GH5)) | 6.0 µM | 138 µM |  |
| HGHGHGH (Synthetic cationic intrinsically disordered antimicrobial peptide (GH7)) | 0.25 µM | 7.2 µM |  |
| HGHGHGHGH (Synthetic cationic intrinsically disordered antimicrobial peptide (GH9)) | 0.18 µM | >400, μM | MBC99: 99 μM |
| HGQSTQRGSRTAGRRGSGH (Peptide derived from human filaggrin-2 (FLG-2 2087-2105)) [FLG-22087-2105] | 0.075 µg/mL | 1.18 µg/mL |  |
| HGSGLGHSSSHGQHGSGSGR (Peptide derived from human hornerin (HR 1-8 HRNR2658-2677)) | 4.7 µg/mL | >300 µg/mL |  |

Same assay, conditions: pH 5.5, 0.25% glucose; listed as HR 1-18 G+H

| Substance | MBC90 [µg/mL] | MBC100 [µg/mL] |
| --- | --- | --- |
| GHHGGGGGHGGGHGGHGGGGGH (Modified peptide derived from human hornerin (HR 1-18 G+H)) [HR 1-18 G + H] | < 0.019 | 0.075 |

Same assay, conditions: pH 5.5, 1% TSB

| Substance | MBC90 | MBC100 |
| --- | --- | --- |
| GGSRSGQSSRGERHGSSSGSSSH (Modified peptide derived from human hornerin (HR 1-11 H1-GH2606G))) [HR 1-11 H1-G H2606G] | >300* μg/ml | >300* μg/ml |
| GRHGSGLGHSSSHGQH (Peptide derived from human hornerin (HR 1-25 HRNR 2656-2671)) [HR 1-25 HRNR2656-2671] | 0.3 µg/mL | 4.7 µg/mL |
| GRHGSGSGQSSSYGPYGSGSGWSSSRGPY (Peptide derived from human hornerin (HRNR 1952-1980)) [HRNR1952-1980] |  | >300 µg/mL |
| GRHGSGSGQSSSYGPYRSGSGWSSSRGPY (Peptide derived from human hornerin (HRNR 1013-1041)) [HRNR1013-1041] |  | >300 µg/mL |
| GRHGSGSGQSSSYSPYGSGSGWSSSRGPY (Peptide derived from human hornerin (HRNR 2422-2450)) [HRNR2422-2450] |  | >300 µg/mL |
| GSGSRQSLSYGRHGSGSGR (Modified peptide derived from human hornerin (HR 2-4L HRNR 1132-1150 P1139L)) [HR 2-4L HRNR1132-1150 P1139L] | 75 µg/mL | >300 µg/mL |
| GSGSRQSPSHGRHGSGSGR (Modified peptide derived from human hornerin (HR 2-4H HRNR 1132-1150 Y1141H)) [HR 2-4H HRNR1132-1150 Y1141H] | 75 µg/mL | >300 µg/mL |
| GSGSRQSPSRGRHGSGSGR (Modified peptide derived from human hornerin (HR 2-4R HRNR 1132-1150 Y1141R)) [HR 2-4R HRNR1132-1150 Y1141R] |  | >300 µg/mL |
| GSGSRQSPSYGRHGSGSGRSSSSGQH (Peptide derived from human hornerin (HR 2-11 HRNR 1132-1157)) [HR 2-11 HRNR1132-1157] | 37.5 µg/mL | >300 µg/mL |
| GSGSRQSPSYGRQGSGSGR (Modified peptide derived from human hornerin (HR 2-4Q HRNR 1132-1150 H1144Q)) [HR 2-40 HRNR1132-1150 H1144Q] | >300 µg/mL | >300 µg/mL |
| GSGSRQSSGHGRQGSGSGQ (Modified peptide derived from human hornerin (HR 1-16 HRNR 2633-2651)) [HR 1-16 HRNR2633-2651] | >300 µg/mL | >300 µg/mL |
| GSGSRQSSSYGRHGSGSGR (Modified peptide derived from human hornerin (HR 2-4S HRNR 1132-1150 P1139S)) [HR 2-4S HRNR1132-1150 P1139S] | 150 µg/mL | >300 µg/mL |
| HGSGLGHSSSHGQHGSGSGR (Peptide derived from human hornerin (HR 1-8 HRNR2658-2677)) |  | >300 µg/mL |
| HGSGSGQSSRGERHGSSSGSSSH (Modified peptide derived from human hornerin (HR 1-11 R1-G R2609G)) | >300* μg/ml | >300* μg/ml |

Same assay, conditions: pH 7.0, 0.25% glucose

| Substance | MBC90 [µg/mL] | MBC100 [µg/mL] |
| --- | --- | --- |
| GHHGGGGGHGGGHGGHGGGGGH (Modified peptide derived from human hornerin (HR 1-18 G+H)) [HR 1-18 G + H] | >300 | >300 |
| GRHGGGGGHGGGHGGHGGGGGR (Modified peptide derived from human hornerin (HR 1-18 L-G/Q-G/6S-6G)) | >300 | >300 |
| GRHGSGGGHSSSHGGHGSGSGR (Modified peptide derived from human hornerin (HR 1-18 L-G/Q-G)) | >300 | >300 |
